Results on six compounds are retold here after patent publication EP2423181A1, “Multitarget substituted biphenyl diol derivatives” (PROUS INSTITUTE FOR BIOMEDICAL RESEARCH S.A., priority 2010, dated 2012).

Series [1] is described as follows: log D octanol/water distribution coefficient. The format is physicochemical. The text has this: Lipophilicity has been correlated to various drug properties, affecting permeability, absorption, distribution, plasma protein binding, metabolism, elimination, and toxicity. In contrast to honokiol and magnolol, compounds claimed in the invention, and more particularly those wherein the nitrogen atom in the group -O-CH(phenyl)-(CH2)p-NH-R^3 is protonated and the compound further comprises a pharmaceutically acceptable counter-anion present an optimal log Doctanol/water (range 0-3), indicating good aqueous solubility, permeability, oral absorption, and blood-brain barrier penetration. Experimental studies in murine models have confirmed the results.
Absorption, distribution and metabolism studies in vitro with selected examples were performed in order to determine pharmacokinetic parameters such as permeability (or absorption constant), intrinsic clearance (or metabolic clearance), and bioavailability. Physicochemical properties such as water solubility, pKa, log P, and log Doctanol/water, and in vitro experimental studies such as permeability in Caco2 cells, and protein binding in the mouse, stability in murine microsomes, chemical stability at different pH and stability in plasma were evaluated for the pharmacokinetic prediction in mice.

The target in a further series is T1, EGFR (Homo sapiens, UniProt P00533).
T1 construct: EGF receptor tyrosin-protein kinase activity was assessed in human A431 cells; endogenous in cells; host or cells: human A431 cells
Nature of the series: EGF receptor tyrosine-protein kinase inhibition (ELISA of Poly[Glu:Tyr-P]). Type of series: biochemical. How it is done: EGF receptor tyrosin-protein kinase activity was assessed in human A431 cells using as a substrate Poly(Glu:Tyr) at 10 µg/ml with a preincubation and incubation times of 15 and 60 min, respectively, at 25°C respectively in 50 mM HEPES pH 7.4, 20 mM MgCl2 and 0.2 mM Na3VO4. An ELISA quantification method of Poly[Glu:Tyr-P] was employed (Cheng, K. and Koland, J.G. J Biol Chem, 1996, 271, 311-318). Table 5. Inhibition of EGFR at 10 µM

Another series concerns tumor brain U-87 MG. The series can be described thus: Tumor cell proliferation assay (alamarBlue). Particulars: Homo sapiens, U-87 MG. The format is cell-based. How it is done:
(§1) Changes in cell proliferation were detected based on the ability of viable cells to cause alamarBlue® to change its oxidized (non-fluorescent, blue) to a reduced (fluorescent, red) form. The alamarBlue® reaction allows the quantification of cell proliferation and examination of the metabolic activity of viable cells. Test substances were examined for activity on the proliferation of human or murine tumor cell lines at assay concentrations from 0.01 to 100 µM.

For a further series, the system named is tumor colon HCT-116. The series can be described thus: Tumor cell proliferation assay (alamarBlue). The format is cell-based. The settings on record: Homo sapiens, HCT-116. How it is done:
as §1

The subject of the next series is tumor leukaemia K562. The series can be described thus: Tumor cell proliferation assay (alamarBlue). The format is cell-based. Particulars: Homo sapiens, K562. How it is done: as §1
(In general: The colour change of resazurin is a common sign of viable cells or microbes.)

The next series deals with tumor liver HepG2. The series can be described thus: Tumor cell proliferation assay (alamarBlue). Type of series: cell-based. The settings on record: Homo sapiens, HepG2. How it is done:
as §1

In another series the test system is tumor lung A549. The series can be described thus: Tumor cell proliferation assay (alamarBlue). Type of series: cell-based. The settings on record: Homo sapiens, A549. How it is done: as §1
The next series relates to tumor ovary OVCAR-3. Nature of the series: Tumor cell proliferation assay (alamarBlue). Type of series: cell-based. Particulars: Homo sapiens, OVCAR-3. How it is done:
as §1

The next series has as its system tumor prostate LNCaP-FGC. The series can be described thus: Tumor cell proliferation assay (alamarBlue). Type of series: cell-based. Particulars: Homo sapiens. How it is done: as §1
The test system of a further series is tumor melanoma B16-FO. Nature of the series: Tumor cell proliferation assay (alamarBlue). Type of series: cell-based, murine. Particulars: Mus musculus. How it is done:
as §1

A further series deals with T2, COX-1 (Homo sapiens, UniProt P23219).
T2 construct: endogenous in cells; host or cells: human platelets
The series can be described thus: COX-1 inhibition in human platelets (PGE2 enzyme immunoassay). The format is biochemical. The settings on record: read-out: % COX-1 Inhibition. How it is done:
(§2) The COX-1 inhibitory activity of representative compounds of the invention was determined according to previously reported methods. COX-1 activity was assessed in human platelets using 100 µM arachidonic acid as a substrate and preincubation and incubation times of 15 min at 37 °C in HBSS, 15 mM HEPES pH 7.4 . The quantification method used was enzyme immunoassay determination of PGE2 (Chan, C.C. et al. J Pharmacol Exp Ther, 1999, 290, 551-560; Swinney, D.C. et al. J Biol Chem, 1997, 272, 12393-12398; Warner, T.D. et al. Proc Natl Acad Sci U S A, 1999, 96, 7563-7568; Riendeau, D. et al. Can J Physiol Pharmacol, 1997, 75, 1088-1095). COX-2 inhibitory activity was determined in human recombinant insect Sf21 cells according to references (Warner, T.D. et al., Proc Natl Acad Sci, USA. 1999;96(13):7563-7568; Riendeau, D. et al., Can J Physiol Pharmacol, 1997 ;75(9):1088-1095). Briefly, the COX-2 inhibitory activity was assessed on human recombinant insect Sf21 cells using 0.3 µM arachidonic acid as a substrate and preincubation and incubation times of 15 and 5 min, respectively, at 37 °C in 100 mM Tris-HCl, pH 7.7. The quantification method used was enzyme immunoassay determination of PGE2. Table 11. Inhibition of COX-1 and COX-2 at 10 µM

The next series has as its target T3, COX-2 (Homo sapiens, UniProt P35354).
T3 construct: host or cells: Sf21 insect cells
T3 sequence (P35354 18-604): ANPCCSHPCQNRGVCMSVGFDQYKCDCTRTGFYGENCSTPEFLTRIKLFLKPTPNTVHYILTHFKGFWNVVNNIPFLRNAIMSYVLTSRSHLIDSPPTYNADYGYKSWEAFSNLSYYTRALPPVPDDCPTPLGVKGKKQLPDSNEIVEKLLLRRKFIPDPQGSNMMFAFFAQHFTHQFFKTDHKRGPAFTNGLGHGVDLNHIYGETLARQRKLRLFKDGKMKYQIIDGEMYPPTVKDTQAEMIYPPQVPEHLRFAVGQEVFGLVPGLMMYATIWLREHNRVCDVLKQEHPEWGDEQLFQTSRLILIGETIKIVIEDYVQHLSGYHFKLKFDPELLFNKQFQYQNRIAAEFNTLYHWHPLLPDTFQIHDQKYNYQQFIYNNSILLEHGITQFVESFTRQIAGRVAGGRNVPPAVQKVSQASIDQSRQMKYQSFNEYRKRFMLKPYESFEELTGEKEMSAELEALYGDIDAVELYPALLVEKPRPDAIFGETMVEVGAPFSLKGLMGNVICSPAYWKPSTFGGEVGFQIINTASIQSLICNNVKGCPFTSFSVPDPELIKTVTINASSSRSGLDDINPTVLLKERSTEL
The series can be described thus: COX-2 inhibition (PGE2 enzyme immunoassay). The format is biochemical. Particulars: read-out: % COX-2 inhibition. How it is done:
as §2

A further series has as its target T4, 5-LO (Homo sapiens, UniProt P09917).
T4 construct: host or cells: Sf9 insect cells
T4 sequence (P09917 1-674): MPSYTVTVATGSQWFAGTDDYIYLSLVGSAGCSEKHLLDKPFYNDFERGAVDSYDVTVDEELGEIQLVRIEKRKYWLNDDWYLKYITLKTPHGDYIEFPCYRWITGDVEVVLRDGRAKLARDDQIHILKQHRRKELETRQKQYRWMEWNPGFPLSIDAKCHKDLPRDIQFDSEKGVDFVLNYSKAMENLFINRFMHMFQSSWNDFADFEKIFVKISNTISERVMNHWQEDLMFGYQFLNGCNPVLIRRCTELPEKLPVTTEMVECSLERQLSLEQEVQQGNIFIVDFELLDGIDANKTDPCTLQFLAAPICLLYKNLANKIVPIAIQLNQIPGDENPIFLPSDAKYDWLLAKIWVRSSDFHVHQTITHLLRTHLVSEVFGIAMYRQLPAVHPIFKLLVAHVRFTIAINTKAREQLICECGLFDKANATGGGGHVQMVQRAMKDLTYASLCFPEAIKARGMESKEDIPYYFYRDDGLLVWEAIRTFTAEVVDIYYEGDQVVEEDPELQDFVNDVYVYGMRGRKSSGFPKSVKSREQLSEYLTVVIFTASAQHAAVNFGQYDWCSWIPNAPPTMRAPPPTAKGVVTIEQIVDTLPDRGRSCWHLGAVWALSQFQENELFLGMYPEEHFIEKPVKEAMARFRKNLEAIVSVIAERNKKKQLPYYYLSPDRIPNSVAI
Nature of the series: 5-Lipoxygenase inhibition (LTB4 enzyme immunoassay). The format is biochemical. How it is done:
The 5-LO-inhibitory activity of compounds of the invention was determined using previously reported assays. Briefly, lipoxygenase activity was evaluated in human recombinant insect Sf9 cells using 3µM arachidonic acid as a substrate with a preincubation and incubation times of 15 and 5 min respectively at 25°C in a 50 mM Tris-HCl, pH 7.4, 2 mM CaCl2, 1 mM ATP. The quantification method used was enzyme immunoassay determination of LTB4 and the significance criteria were established with a response equal or different of the maximum stimulation or inhibition (Noguchi, M. et al., Eur J Biochem, 1994, 222(2), 285-292; Percival, M.D. et al., Eur J Biochem, 1992, 210(1), 109-117).

The test system of series [2] is mice. Particulars: formalin test, active dose of external active reference, cited from earlier work; for Dose (mg / Kg) Early Response: p.o.; for Dose (mg / Kg) Late Response: route not given.
The nature of series [3]: Maximum Tolerated Dose after acute administration. The settings on record: mouse, in vivo, po, mice. How it is done: The Maximum Tolerated Dose (MTD) in mice was determined for selected compounds. The protocol of the studies was in accordance with the standard guidelines for drug development: • (htp://dtp.nci.nih.gov/branches/btb/acute tox.html). Table 10. Maximum Tolerated Doses in mice after acute i.p. administration

In series [4] the test system is mice. The series can be described thus: Formalin test (antinociceptive activity). Particulars: formalin test, dose 10 mg/Kg i.p. Type of series: in vivo. How it is done:
The chemical irritant formalin test is used as a chronic pain model in animals. The s.c. administration of formalin to the paw of a mouse produces a biphasic nociceptive behavioral response, an early response (0-5 min after injection) and a late response (20-30 min after injection) (Hunskaar, S., Fasmer, O.B., Hole, K. Formalin test in mice, a useful technique for evaluating mild analgesics. J Neurosci Methods, 1985 ;14(1):69-76).
Aspirine and paracetamol are included as external active references in early and late response. Table 12. Early and late response inhibition in the formalin test.

Where [5] appears, read: 5-LO, at 10 µM, read-out: % Inhibition.

Counter-ions that a name gives are not always drawn. Like-named read-outs stand apart in the source and are kept apart here.

T2 sequence (P23219 24-599): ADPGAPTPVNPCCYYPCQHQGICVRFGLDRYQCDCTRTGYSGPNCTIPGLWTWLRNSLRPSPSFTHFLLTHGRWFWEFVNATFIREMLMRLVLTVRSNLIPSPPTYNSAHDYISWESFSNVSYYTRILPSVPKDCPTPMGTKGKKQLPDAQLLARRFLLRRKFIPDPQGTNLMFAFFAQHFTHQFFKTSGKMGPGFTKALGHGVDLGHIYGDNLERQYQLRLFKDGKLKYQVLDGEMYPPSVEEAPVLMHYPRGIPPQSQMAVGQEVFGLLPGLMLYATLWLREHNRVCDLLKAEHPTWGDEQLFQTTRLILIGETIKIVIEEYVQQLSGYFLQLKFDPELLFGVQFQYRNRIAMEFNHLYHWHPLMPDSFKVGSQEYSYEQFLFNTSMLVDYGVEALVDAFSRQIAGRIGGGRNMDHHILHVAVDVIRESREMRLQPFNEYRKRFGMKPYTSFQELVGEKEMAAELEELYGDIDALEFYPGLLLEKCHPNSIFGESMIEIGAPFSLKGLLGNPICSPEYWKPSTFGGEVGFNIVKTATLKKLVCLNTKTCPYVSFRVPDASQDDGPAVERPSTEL
T1 sequence (P00533 25-1210): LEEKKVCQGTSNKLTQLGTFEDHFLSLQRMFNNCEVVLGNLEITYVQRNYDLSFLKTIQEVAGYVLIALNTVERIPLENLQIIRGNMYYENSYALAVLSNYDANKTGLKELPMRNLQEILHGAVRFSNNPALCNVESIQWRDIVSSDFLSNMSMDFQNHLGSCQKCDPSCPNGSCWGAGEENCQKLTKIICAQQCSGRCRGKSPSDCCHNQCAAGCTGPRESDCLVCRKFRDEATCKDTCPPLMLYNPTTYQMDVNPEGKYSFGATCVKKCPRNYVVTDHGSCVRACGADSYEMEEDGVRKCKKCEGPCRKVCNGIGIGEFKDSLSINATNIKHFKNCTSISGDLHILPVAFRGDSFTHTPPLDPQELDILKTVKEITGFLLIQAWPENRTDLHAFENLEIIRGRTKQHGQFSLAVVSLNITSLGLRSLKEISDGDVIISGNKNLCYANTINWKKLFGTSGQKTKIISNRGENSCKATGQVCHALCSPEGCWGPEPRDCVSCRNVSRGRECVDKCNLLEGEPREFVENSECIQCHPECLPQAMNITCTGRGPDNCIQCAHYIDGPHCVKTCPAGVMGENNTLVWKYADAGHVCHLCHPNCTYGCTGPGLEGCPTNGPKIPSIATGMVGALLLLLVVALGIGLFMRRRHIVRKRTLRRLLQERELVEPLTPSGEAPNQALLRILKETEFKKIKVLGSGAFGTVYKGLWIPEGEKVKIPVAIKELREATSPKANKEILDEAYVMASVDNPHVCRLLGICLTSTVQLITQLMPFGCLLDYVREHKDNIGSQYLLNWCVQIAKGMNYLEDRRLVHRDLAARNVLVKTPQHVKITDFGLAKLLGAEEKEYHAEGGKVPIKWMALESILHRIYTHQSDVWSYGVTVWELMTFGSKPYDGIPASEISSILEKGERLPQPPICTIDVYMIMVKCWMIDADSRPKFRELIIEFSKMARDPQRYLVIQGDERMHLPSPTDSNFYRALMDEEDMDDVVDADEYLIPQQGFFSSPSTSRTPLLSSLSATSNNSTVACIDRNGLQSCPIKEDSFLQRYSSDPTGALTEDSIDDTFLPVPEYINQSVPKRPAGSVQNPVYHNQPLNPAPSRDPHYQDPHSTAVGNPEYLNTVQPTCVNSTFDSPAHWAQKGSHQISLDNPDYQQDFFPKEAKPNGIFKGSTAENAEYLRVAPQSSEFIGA

A word on the inhibition: it is the relative decrease from the control value, in per cent. Usually IC50 stands for the concentration that inhibits the measured activity by half. Lower therefore signals higher potency. Compound `C=CCc1ccc(O)c(-c2cc(CC=C)ccc2O)c1` [Magnolol, reference compound] showed a logDoctanol/water in series [1] of 5.25. For the same compound, the inhibition at 10 µM against EGFR is -26%; on COX-1, 21%; at COX-2, 95%; on 5-LO it was 67%. Further, the IC50 in the series with tumor brain U-87 MG came out at 48 µM; in the series on tumor colon HCT-116 it was 17 µM; with tumor leukaemia K562 it was 48 µM; in the series on tumor liver HepG2, 12 µM; in the series with tumor lung A549 it was 19 µM; with tumor ovary OVCAR-3, 23 µM. The values for the IC50 with tumor prostate LNCaP-FGC and in the series with tumor melanoma B16-FO were 5.1 µM and 28 µM, respectively.

Regarding `CC(=O)Oc1ccccc1C(=O)O` [Aspirin], in the series on mice [2], the “Dose (mg / Kg) Early Response” value is listed as 200-400 p.o. mg / Kg and the “Dose (mg / Kg) Late Response” value was 300 to 400 mg/kg.

`CCCc1ccc(O)c(-c2ccc(OC(CCNC)c3ccccc3)c(CCC)c2)c1` (stereo not drawn) [Example 6, 4'-[3-(Methylamino)-1-phenylpropoxy]-3',5-dipropylbiphenyl-2-ol hydrochloride]: the inhibition at 10 µM on 5-LO (setting [5]) turned out to be 100%.

As usually defined, the MTD is the highest dose tested that stayed within the study's limit of toxicity. Low values mean a narrow tolerated range, high ones a wide tolerated range. Compound `C=CCc1ccc(OC(CCNC)c2ccccc2)c(-c2ccc(O)c(CC=C)c2)c1.Cl` (stereo not drawn) [Example 4, 3,5'-Diallyl-2'-[3-(methylamino)-1-phenylpropoxy]biphenyl-4-ol hydrochloride] yielded an MTD in [3] of 30 mg/kg. The inhibition at 10 µM on COX-1 (at 10 µM, human platelets) is 81%; at COX-2 (at 10 µM) it was 0%; at 5-LO (setting [5]), 100%.

Turning to `CN1CC[C@]23c4c5ccc(O)c4O[C@H]2[C@@H](O)C=C[C@H]3[C@H]1C5` [Morphine, reference compound], the “Early Response” value in the series on mice [4] (early response 0-5 min) is “active”. For the same compound, the “Late Response” value in the series on mice [4] (late response 20-30 min) is “active”.

Turning to `CC(=O)Nc1ccc(O)cc1` [Paracetamol], in the series on mice [2], the “Dose (mg / Kg) Early Response” value is 200-400 p.o. mg / Kg and the “Dose (mg / Kg) Late Response” value is 300 to 400 mg/kg.
